This passage reports EC50 results from patent US9351955B2, “Compounds and pharmaceutical compositions thereof for the treatment of cystic fibrosis” (Galapagos NV, priority 2013, dated 2016).

What all share (format): cell-based
For assay [1], the target named is T1, CFTR ΔF508 mutant (Homo sapiens, UniProt P13569, DEL508-508).
T1 construct: expressed in transfected cells; host or cells: CFBE41o- (adenoviral transduction)
The assay can be described thus: YFP-halide influx assay for the CFTR-ΔF508 mutation (384 well, CFBE41o- cells, FDSS/μCell). Particulars: forskolin 10.67 μM, fluorescence after 36 seconds, read-out: EC50 measured by YFP-halide influx assay for the CFTR-ΔF508. In a few lines:
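CFBE41o- cells were adenovirally transduced with ΔF508 CFTR and the YFP H148Q/I152L reporter. Cells were then held 24 h at 27 °C or treated 24 h at 37 °C with a CFTR modulator. Iodide-induced quench was recorded for 2 min, and EC50 was derived from 1−F/F0 at 36 s against compound concentration.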

In assay [2] the target is T2, CFTR G551D mutant (Homo sapiens, UniProt P13569, G551D).
T2 construct: expressed in transfected cells; host or cells: HEK293 (reverse transfection with plasmids)
The assay can be described thus: YFP-halide influx assay for the CFTR-G551D mutation (HEK293 cells). The following applies: HEK293 cells expressing CFTR G551D and YFP reporter; forskolin 10.67 μM; read-out: EC50 measured by YFP-halide influx assay for the CFTR-G551D. In a few lines:
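HEK293 cells reverse-transfected with CFTR G551D and halide-sensitive YFP, expressed 24 h at 37 °C. Iodide-induced fluorescence quench recorded for 7 s after I^− injection; response as 1−F/F0, EC50 from concentration plot.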

The target in assay [3] is T3, CFTR-R117H (Homo sapiens, UniProt P13569, R117H).
T3 construct: expressed in transfected cells
The assay can be described thus: YFP-halide influx assay for the CFTR-R117H. The following applies: CFTR-R117H mutant; read-out: EC50 measured by YFP-halide influx assay for the CFTR-R117H. The text has this: (§1) The YFP halide influx assay measures the functionality of the cystic fibrosis Transmembrane Conductance regulator (CFTR) channels. The assay is used to evaluate the capacity of compounds to increase the channel opening of existing mutant CFTR channels in the membrane. It makes use of the observation that the yellow fluorescent protein (YFP) variant YFP H148Q, I152L, F47L has its fluorescence substantially quenched by halide ions like Cl^− and I^−. (Galietta et al., 2001)
(§2) For this purpose, HEK293-cells are seeded in 96 well plates. During seeding, the cells are reverse-transfected with plasmid vectors that direct the expression of the CFTR G551D mutant and of the YFP reporter. Cells are incubated at 37° C., 5% CO2 for 24 hours so as to allow for sufficient expression of the CFTR protein.
(§3) The I^−-induced quenching of fluorescence is recorded immediately after injection of I^− for 7 seconds. The capacity of a compound to increase the channel opening is directly correlated with the decrease in fluorescence, and is expressed as (1−(fluorescence after 7 seconds (F)/fluorescence before injection (F0))) and an EC50 can be derived from a (1−F/F0) vs compound concentration plot.
(§4) Similar YHA assays were developed for other channel gating defective or channel conductance defective CFTR mutants to determine effect of compound on channel activity. Examples of mutants are G178R, G1349D, S549N, R117H, R334W. This assay is also used for additional class I CFTR mutants, including G542X, W1282X; class II mutants including N1303K, and for class III mutants including S1251N; or wild-type CFTR.

Assay [4] has as its target T4, CFTR-G1349D (Homo sapiens, UniProt P13569, G1349D).
T4 construct: expressed in transfected cells
The assay can be described thus: YFP-halide influx assay for the CFTR-G1349D. The following applies: CFTR-G1349D mutant; read-out: EC50 measured by YFP-halide influx assay for the CFTR-G1349D.
Excerpt: as §1, §2, §3, §4

In assay [5] the target is T5, CFTR-S549N (Homo sapiens, UniProt P13569, S549N).
T5 construct: expressed in transfected cells
Description: YFP-halide influx assay for the CFTR-S549N. The following applies: CFTR-S549N mutant; read-out: EC50 measured by YFP-halide influx assay for the CFTR-S549N.
Excerpt: as §1, §2, §3, §4

Assay [6] concerns the target T6, CFTR-G178R (Homo sapiens, UniProt P13569, G178R).
T6 construct: expressed in transfected cells
Description: YFP-halide influx assay for the CFTR-G178R. Particulars: read-out: EC50 measured by YFP-halide influx assay for the CFTR-G178R.
Excerpt: as §1, §2, §3, §4

T4 sequence (P13569 whole entry G1349D): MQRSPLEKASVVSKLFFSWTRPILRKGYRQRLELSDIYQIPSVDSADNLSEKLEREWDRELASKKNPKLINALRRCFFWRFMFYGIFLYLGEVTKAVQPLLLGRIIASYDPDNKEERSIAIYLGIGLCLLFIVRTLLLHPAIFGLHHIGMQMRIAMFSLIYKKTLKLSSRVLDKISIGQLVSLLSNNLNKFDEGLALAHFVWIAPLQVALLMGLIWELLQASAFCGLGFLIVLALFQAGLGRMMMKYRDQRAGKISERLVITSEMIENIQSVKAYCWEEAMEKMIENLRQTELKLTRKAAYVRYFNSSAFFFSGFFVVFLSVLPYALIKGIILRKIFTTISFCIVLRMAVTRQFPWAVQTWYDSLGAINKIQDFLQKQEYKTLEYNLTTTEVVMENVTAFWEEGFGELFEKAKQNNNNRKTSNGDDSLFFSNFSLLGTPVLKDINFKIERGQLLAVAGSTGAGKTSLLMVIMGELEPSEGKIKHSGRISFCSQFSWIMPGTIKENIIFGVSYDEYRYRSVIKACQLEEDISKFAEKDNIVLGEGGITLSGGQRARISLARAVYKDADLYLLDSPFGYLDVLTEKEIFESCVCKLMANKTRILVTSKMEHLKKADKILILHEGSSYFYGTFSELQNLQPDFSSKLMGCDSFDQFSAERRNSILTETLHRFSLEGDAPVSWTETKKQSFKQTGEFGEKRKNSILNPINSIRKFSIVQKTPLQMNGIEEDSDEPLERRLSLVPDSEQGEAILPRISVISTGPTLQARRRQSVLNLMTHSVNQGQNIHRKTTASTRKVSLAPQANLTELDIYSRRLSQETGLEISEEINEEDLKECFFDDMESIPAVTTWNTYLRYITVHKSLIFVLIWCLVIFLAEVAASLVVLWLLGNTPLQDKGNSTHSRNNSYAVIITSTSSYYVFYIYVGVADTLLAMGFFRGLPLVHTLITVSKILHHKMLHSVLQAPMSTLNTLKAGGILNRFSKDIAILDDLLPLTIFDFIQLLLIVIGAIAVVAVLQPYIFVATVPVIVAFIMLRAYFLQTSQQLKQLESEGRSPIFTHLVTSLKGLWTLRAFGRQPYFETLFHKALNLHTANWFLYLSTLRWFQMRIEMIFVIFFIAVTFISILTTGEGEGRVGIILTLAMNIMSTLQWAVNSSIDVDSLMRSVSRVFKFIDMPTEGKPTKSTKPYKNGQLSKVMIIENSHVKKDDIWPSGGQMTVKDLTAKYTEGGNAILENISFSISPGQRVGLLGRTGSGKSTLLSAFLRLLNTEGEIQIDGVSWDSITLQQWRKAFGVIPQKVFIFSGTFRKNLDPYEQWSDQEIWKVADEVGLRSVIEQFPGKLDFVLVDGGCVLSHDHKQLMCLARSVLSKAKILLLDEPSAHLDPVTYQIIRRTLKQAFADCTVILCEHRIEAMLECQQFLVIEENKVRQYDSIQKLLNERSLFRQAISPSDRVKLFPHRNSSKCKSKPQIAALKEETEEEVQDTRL
T5 sequence (P13569 whole entry S549N): as the sequence (P13569 whole entry G1349D) above, with S549N, D1349G counted along it
T6 sequence (P13569 whole entry G178R): as the sequence (P13569 whole entry G1349D) above, with G178R, D1349G counted along it
T1 sequence (P13569 with tags, fused parts or gaps DEL508-508): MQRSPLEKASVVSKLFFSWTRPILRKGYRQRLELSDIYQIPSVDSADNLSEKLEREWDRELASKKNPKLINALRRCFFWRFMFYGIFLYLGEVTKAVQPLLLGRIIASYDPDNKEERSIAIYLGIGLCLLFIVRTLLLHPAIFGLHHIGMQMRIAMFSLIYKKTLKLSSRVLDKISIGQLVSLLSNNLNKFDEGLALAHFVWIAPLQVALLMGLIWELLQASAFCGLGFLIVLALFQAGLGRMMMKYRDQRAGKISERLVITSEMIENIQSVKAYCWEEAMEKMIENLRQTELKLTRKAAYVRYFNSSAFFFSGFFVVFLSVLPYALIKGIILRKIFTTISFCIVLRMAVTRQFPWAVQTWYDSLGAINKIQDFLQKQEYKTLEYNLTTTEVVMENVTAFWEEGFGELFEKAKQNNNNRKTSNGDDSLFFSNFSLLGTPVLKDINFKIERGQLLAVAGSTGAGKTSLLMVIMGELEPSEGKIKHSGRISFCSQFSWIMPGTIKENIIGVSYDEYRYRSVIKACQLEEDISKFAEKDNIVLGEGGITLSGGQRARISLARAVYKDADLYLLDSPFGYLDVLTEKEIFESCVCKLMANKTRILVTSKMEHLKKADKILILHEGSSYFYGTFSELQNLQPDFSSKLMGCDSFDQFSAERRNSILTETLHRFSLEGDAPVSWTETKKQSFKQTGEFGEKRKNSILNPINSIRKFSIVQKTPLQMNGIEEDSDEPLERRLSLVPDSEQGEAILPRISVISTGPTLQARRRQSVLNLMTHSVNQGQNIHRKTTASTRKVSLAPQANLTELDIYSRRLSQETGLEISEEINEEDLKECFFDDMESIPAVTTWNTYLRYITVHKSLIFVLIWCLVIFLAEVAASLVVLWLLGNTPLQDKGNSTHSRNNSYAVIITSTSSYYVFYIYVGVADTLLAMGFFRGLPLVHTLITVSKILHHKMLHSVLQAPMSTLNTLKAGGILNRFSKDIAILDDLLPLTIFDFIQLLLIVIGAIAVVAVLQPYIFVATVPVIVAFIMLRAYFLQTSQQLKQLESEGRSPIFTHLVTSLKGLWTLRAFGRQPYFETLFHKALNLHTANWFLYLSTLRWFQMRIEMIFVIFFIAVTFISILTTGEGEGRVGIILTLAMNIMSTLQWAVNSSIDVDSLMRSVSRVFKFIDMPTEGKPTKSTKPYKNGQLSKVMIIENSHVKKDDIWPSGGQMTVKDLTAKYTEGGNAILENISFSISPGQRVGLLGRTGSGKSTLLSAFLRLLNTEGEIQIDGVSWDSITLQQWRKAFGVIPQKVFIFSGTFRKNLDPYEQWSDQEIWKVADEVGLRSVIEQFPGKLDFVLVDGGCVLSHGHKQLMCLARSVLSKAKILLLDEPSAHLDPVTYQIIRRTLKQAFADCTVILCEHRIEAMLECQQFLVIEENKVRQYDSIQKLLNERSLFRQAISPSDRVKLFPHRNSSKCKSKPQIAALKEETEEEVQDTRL
T2 sequence (P13569 whole entry G551D): as the sequence (P13569 whole entry G1349D) above, with G551D, D1349G counted along it
T3 sequence (P13569 whole entry R117H): as the sequence (P13569 whole entry G1349D) above, with R117H, D1349G counted along it

For the compound `CC1(C)Cc2c(sc(NC(=O)c3ccn(CC(F)(F)F)n3)c2C(N)=O)C(C)(C)O1` [Compound 121, N-(3-carbamoyl-5,5,7,7-tetramethyl-4H-thieno[2,3-c]pyran-2-yl)-1-(2,2,2-trifluoroethyl)pyrazole-3-carboxamide], the EC50 (commonly the concentration giving half of the maximal effect) was found to be 18.7 nM in assay [1]; 1000 nM in assay [2]; 724 nM in assay [3]; 536 nM in assay [4]; 599 nM in assay [5]; 466 nM in assay [6].
For `CCCc1c[nH]nc1C(=O)Nc1sc2c(c1C(N)=O)CC(C)(C)OC2(C)C` [Compound 71, N-(3-carbamoyl-5,5,7,7-tetramethyl-4H-thieno[2,3-c]pyran-2-yl)-4-propyl-1H-pyrazole-3-carboxamide], the EC50 in assay [1] was found to be 14.4 nM; in assay [2] it was 1170 nM; in assay [3] it was 116 nM; in assay [4] it was 97.7 nM; in assay [5], 196 nM; in assay [6], 89.3 nM.
Take `CC1(C)Cc2c(sc(NC(=O)c3n[nH]cc3C3=COCCO3)c2C(N)=O)C(C)(C)O1` [Compound 94, N-(3-carbamoyl-5,5,7,7-tetramethyl-4H-thieno[2,3-c]pyran-2-yl)-4-(2,3-dihydro-1,4-dioxin-5-yl)-1H-pyrazole-3-carboxamide]: the EC50 in assay [1] worked out at 30.1 nM; in assay [2], 541 nM; in assay [3], 147 nM; in assay [4] it was 672 nM; in assay [5] it was 345 nM; in assay [6], 67.6 nM.
Consider `CC1(C)Cc2c(sc(NC(=O)[C@H](O)C(C)(C)C)c2C(N)=O)C(C)(C)O1` [Compound 77, 2-[[(2R)-2-hydroxy-3,3-dimethyl-butanoyl]amino]-5,5,7,7-tetramethyl-4H-thieno[2,3-c]pyran-3-carboxamide], for which the EC50 was 127 nM in assay [1]; 7780 nM in assay [2]; 1010 nM in assay [3]; 1310 nM in assay [4]; 1450 nM in assay [5]; 2210 nM in assay [6].
Turning to `CC(C)CC(O)C(=O)Nc1sc2c(c1C(N)=O)CC(C)(C)OC2(C)C` (centres unmarked) [Compound 46, 2-[(2-hydroxy-4-methyl-pentanoyl)amino]-5,5,7,7-tetramethyl-4H-thieno[2,3-c]pyran-3-carboxamide], the EC50 came out at 2.84 nM in assay [1]; 1430 nM in assay [2]; 24.4 nM in assay [3]; 58.4 nM in assay [4]; 140 nM in assay [5]; 19 nM in assay [6].
`CC1(C)Cc2c(sc(NC(=O)[C@@H](O)CC3CC3)c2C(N)=O)C(C)(C)O1` [Compound 98, 2-[[(2S)-3-cyclopropyl-2-hydroxy-propanoyl]amino]-5,5,7,7-tetramethyl-4H-thieno[2,3-c]pyran-3-carboxamide]: the EC50 was found to be 2.62 nM in assay [1]; 5110 nM in assay [2]; 26.7 nM in assay [3]; 54.7 nM in assay [4]; 73 nM in assay [5]; 41.5 nM in assay [6].
As to `CCOCCc1c[nH]nc1C(=O)Nc1sc2c(c1C(N)=O)CC(C)(C)OC2(C)C` [Compound 72, N-(3-carbamoyl-5,5,7,7-tetramethyl-4H-thieno[2,3-c]pyran-2-yl)-4-(2-ethoxyethyl)-1H-pyrazole-3-carboxamide], the EC50 in assay [1] is 17.9 nM; in assay [2], 368 nM; in assay [3] it was 147 nM; in assay [4], 64 nM; in assay [5], 122 nM; in assay [6], 31.4 nM.
In the case of `COCc1[nH]nc(C(=O)Nc2sc3c(c2C(N)=O)CC(C)(C)OC3(C)C)c1Cl` [Compound 50, N-(3-carbamoyl-5,5,7,7-tetramethyl-4H-thieno[2,3-c]pyran-2-yl)-4-chloro-5-(methoxymethyl)-1H-pyrazole-3-carboxamide], the EC50 in assay [1] was determined as 10.6 nM; in assay [2], 288 nM; in assay [3], 76.3 nM; in assay [4], 70.5 nM; in assay [5], 105 nM; in assay [6], 47.4 nM.
Consider `CC1(C)Cc2c(sc(NC(=O)[C@@H](O)C(C)(C)C)c2C(N)=O)C(C)(C)O1` [Compound 76, 2-[[(2S)-2-hydroxy-3,3-dimethyl-butanoyl]amino]-5,5,7,7-tetramethyl-4H-thieno[2,3-c]pyran-3-carboxamide], for which the EC50 in assay [1] was determined as 2.17 nM; in assay [2] it was 412 nM; in assay [3], 15.3 nM; in assay [4], 24.4 nM; in assay [5] it was 31.5 nM; in assay [6], 14.1 nM.
For the compound `CC1(C)Cc2c(sc(NC(=O)c3ccnn3CC(F)(F)F)c2C(N)=O)C(C)(C)O1` [Compound 151, N-(3-carbamoyl-5,5,7,7-tetramethyl-4H-thieno[2,3-c]pyran-2-yl)-2-(2,2,2-trifluoroethyl)pyrazole-3-carboxamide], the EC50 amounted to 20.1 nM in assay [1]; 971 nM in assay [2]; 780 nM in assay [3]; 464 nM in assay [4]; 3330 nM in assay [5]; 221 nM in assay [6].
On to `CC1(C)Cc2c(sc(NC(=O)c3n[nH]cc3C3=CCOCC3)c2C(N)=O)C(C)(C)O1` [Compound 45, N-(3-carbamoyl-5,5,7,7-tetramethyl-4H-thieno[2,3-c]pyran-2-yl)-4-(3,6-dihydro-2H-pyran-4-yl)-1H-pyrazole-3-carboxamide], for which the EC50 in assay [1] was 29.6 nM; in assay [2] it was 1140 nM; in assay [3], 1200 nM; in assay [4], 325 nM; in assay [5] it was 1520 nM; in assay [6], 368 nM.
As to `CC(C)(C)CC(O)C(=O)Nc1sc2c(c1C(N)=O)CC(C)(C)OC2(C)C` (centres unmarked) [Compound 106, 2-[(2-hydroxy-4,4-dimethyl-pentanoyl)amino]-5,5,7,7-tetramethyl-4H-thieno[2,3-c]pyran-3-carboxamide], the EC50 stood at 0.54 nM in assay [1]; 981 nM in assay [2]; 11.7 nM in assay [3]; 200 nM in assay [4]; 21.8 nM in assay [5]; 26 nM in assay [6].
On to `COCCOc1cc(C(=O)Nc2sc3c(c2C(N)=O)CC(C)(C)OC3(C)C)n[nH]1` [Compound 55, 5-(2-Methoxy-ethoxy)-1H-pyrazole-3-carboxylic acid (3-carbamoyl-5,5,7,7-tetramethyl-4,7-dihydro-5H-thieno[2,3-c]pyran-2-yl)-amide], for which the 50% effective concentration (EC50) in assay [1] was determined as 24.5 nM; in assay [2], 600 nM; in assay [3], 38.9 nM; in assay [4], 74 nM; in assay [5], 108 nM; in assay [6] it was 58.3 nM.
`CC(C)OCCOc1c[nH]nc1C(=O)Nc1sc2c(c1C(N)=O)CC(C)(C)OC2(C)C` [Compound 101, N-(3-carbamoyl-5,5,7,7-tetramethyl-4H-thieno[2,3-c]pyran-2-yl)-4-(2-isopropoxyethoxy)-1H-pyrazole-3-carboxamide]: the EC50 in assay [1] amounted to 26.8 nM; in assay [2], 1360 nM; in assay [3], 1120 nM; in assay [4], 888 nM; in assay [5], 947 nM; in assay [6], 347 nM.
For `CC(C)C(O)C(=O)Nc1sc2c(c1C(N)=O)CC(C)(C)OC2(C)C` (single isomer, unassigned) [Compound 52, 2-[[2-hydroxy-3-methyl-butanoyl]amino]-5,5,7,7-tetramethyl-4H-thieno[2,3-c]pyran-3-carboxamide], the EC50 in assay [1] is 1.97 nM; in assay [3], 11.4 nM; in assay [4], 60.9 nM; in assay [5], 86.5 nM; in assay [6], 39.7 nM.
